Structures can show the parent of a compound that is named as a salt. Where two headings read alike, the source gives them in different places.
Experiments:
Chk-1 kinase = Chk-1 kinase (Homo sapiens (Human), UniProt O14757); experiment: Chk-1 Kinase Inhibiting Activity (33P-ATP filter assay, CHKtide substrate); type: biochemical
Procedure, shortened: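 Full-length N-terminal GST-tagged human Chk-1 from insect cells, 0.5 nM final, with 20 μM peptide substrate and 33P-ATP in HEPES pH 7.5 buffer with 1% DMSO. Reaction ran 120 minutes at room temperature; incorporated radioactivity captured on P81 filters and counted for IC50.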

MIA PaCa-2 cells = experiment: Gemcitabine Combination Cell Assay (Cell Titer Glo); type: cell-based; conditions: for IC50: Homo sapiens; for 10xLS: approximate concentration of Chk1 inhibitor that results in a 10-fold reduction in the IC50 of gemcitabine alone; for 2xLS: approximate concentration of Chk1 inhibitor that results in a two-fold reduction in the IC50 of gemcitabine alone
Procedure, shortened: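 MIA PaCa-2 cells were treated 72 h with half-log dilutions of Chk1 inhibitor (top 3000 nM) and gemcitabine (top 100 nM), alone and in full matrix; viability by CellTiter-Glo luminescence. IC50s from four-parameter fit; Chk1 inhibitor concentrations giving two- and ten-fold lowering of gemcitabine IC50 were estimated.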

[1] = against Chk-1 kinase, read-out: IC50
[2] = Chk1 inhibitor alone, MIA PaCa-2 cells, 72 h, read-out: Chk1 IC50
[3] = MIA PaCa-2, 72 h, read-out: Chk1 IC50 (nM)

Chain of Chk-1 kinase (O14757 whole entry): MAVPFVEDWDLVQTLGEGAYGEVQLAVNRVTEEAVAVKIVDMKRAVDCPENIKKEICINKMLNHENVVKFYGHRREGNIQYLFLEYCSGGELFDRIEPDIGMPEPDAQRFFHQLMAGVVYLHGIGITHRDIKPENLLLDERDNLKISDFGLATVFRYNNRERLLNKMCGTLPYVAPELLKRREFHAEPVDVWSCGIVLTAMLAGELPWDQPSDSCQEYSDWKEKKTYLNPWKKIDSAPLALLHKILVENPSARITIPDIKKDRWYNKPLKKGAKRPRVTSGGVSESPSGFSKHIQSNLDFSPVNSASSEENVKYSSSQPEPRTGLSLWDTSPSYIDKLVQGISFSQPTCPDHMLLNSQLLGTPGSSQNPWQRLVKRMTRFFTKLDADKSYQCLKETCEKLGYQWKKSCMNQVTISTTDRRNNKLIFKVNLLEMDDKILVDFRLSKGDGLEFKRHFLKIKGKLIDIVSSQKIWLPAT

SMILES	IC50 (Chk-1 kinase; [1]) [nM]	IC50 (MIA PaCa-2 cells; [2]) [nM]	10xLS (MIA PaCa-2 cells; MIA PaCa-2 cells, 72 h) [nM]	2xLS (MIA PaCa-2 cells; MIA PaCa-2 cells, 72 h) [nM]	IC50 (Chk-1 kinase) [nM]	IC50 (MIA PaCa-2 cells; [3]) [nM]
COc1cc(C2CCNCC2)ccc1-c1cc(Nc2cnc(Cl)cn2)n[nH]1 [Example 43, 5-chloro-N-[5-[2-methoxy-4-(4-piperidyl)phenyl]-1H-pyrazol-3-yl]pyrazin-2-amine]	0.73	1330	1000	100		
COc1cc(C2CCN(C)CC2)ccc1-c1cc(Nc2cnc(Cl)cn2)n[nH]1 [Example 44, 5-chloro-N-[5-[2-methoxy-4-(1-methyl-4-piperidyl)phenyl]-1H-pyrazol-3-yl]pyrazin-2-amine]	0.69	1260	1000	100		
COc1cc(N2CCNCC2)ccc1-c1cc(Nc2cnc(C#N)cn2)n[nH]1 [Example 46, 5-[[5-(2-methoxy-4-piperazin-1-yl-phenyl)-1H-pyrazol-3-yl]amino]pyrazine-2-carbonitrile]		442	<30	<3	0.054	
COc1cc(C2C[C@H](C)N[C@@H](C)C2)ccc1-c1cc(Nc2cnc(C#N)cn2)n[nH]1 (stereo partly drawn) [Example 47, 5-[[5-[4-[(2S,6S)-2,6-dimethyl-4-piperidyl]-2-methoxy-phenyl]-1H-pyrazol-3-yl]amino]pyrazine-2-carbonitrile]	0.23	235	100	3		
COc1cc(C2CCOCC2)ccc1-c1cc(Nc2cnc(C#N)cn2)n[nH]1 [Example 48, 5-[[5-(2-methoxy-4-tetrahydropyran-4-yl-phenyl)-1H-pyrazol-3-yl]amino]pyrazine-2-carbonitrile]	1.5	2020	1000	100		
COc1cc(C2CCNCC2)ccc1-c1cc(Nc2ccc(C#N)c(F)c2)n[nH]1 [Example 49, 2-fluoro-4-[[5-[2-methoxy-4-(4-piperidyl)phenyl]-1H-pyrazol-3-yl]amino]benzonitrile]	36	3570	<3000	1000		
COc1cc(C2CCNCC2)ccc1-c1cc(Nc2ccc(C#N)cn2)n[nH]1 [Example 50, 6-[[5-[2-methoxy-4-(4-piperidyl)phenyl]-1H-pyrazol-3-yl]amino]pyridine-3-carbonitrile]	20	> 3000	3000	300		
N#Cc1cnc(Nc2cc(-c3ccc(C4CCNCC4)cc3F)[nH]n2)cn1 [Example 51, 5-[[5-[2-fluoro-4-(4-piperidyl)phenyl]-1H-pyrazol-3-yl]amino]pyrazine-2-carbonitrile]	6.3	> 3000	3000	300		
COc1cc(C2CCNCC2)ccc1-c1cc(Nc2ccc(C#N)nc2)n[nH]1 [Example 52, 5-[[5-[2-methoxy-4-(4-piperidyl)phenyl]-1H-pyrazol-3-yl]amino]pyridine-2-carbonitrile]	0.46	953	300	30		
CC(C)Oc1cc(C2CCNCC2)ccc1-c1cc(Nc2cnc(C#N)cn2)n[nH]1 [Example 53, 5-[[5-[2-isopropoxy-4-(4-piperidyl)phenyl]-1H-pyrazol-3-yl]amino]pyrazine-2-carbonitrile]	3.1	2300	1000	100		
CCN1CCC(c2ccc(-c3cc(Nc4cnc(C#N)cn4)n[nH]3)c(OC)c2)CC1 [Example 60, 5-[[5-[4-(1-ethyl-4-piperidyl)-2-methoxy-phenyl]-1H-pyrazol-3-yl]amino]pyrazine-2-carbonitrile hydrochloride]	0.1		100	3		329
COc1cc(C2(F)CCN(C)CC2)ccc1-c1cc(Nc2cnc(C#N)cn2)n[nH]1 [Example 64, 5-[[5-[4-(4-Fluoro-1-methyl-4-piperidyl)-2-methoxy-phenyl]-1H-pyrazol-3-yl]amino]pyrazine-2-carbonitrile hydrochloride]	0.15		100	3		144

Continued, in another order:

IC50 (Chk-1 kinase; [1]) [nM]	IC50 (MIA PaCa-2 cells; [2]) [nM]	SMILES	10xLS (MIA PaCa-2 cells; MIA PaCa-2 cells, 72 h) [nM]	2xLS (MIA PaCa-2 cells; MIA PaCa-2 cells, 72 h) [nM]	IC50 (Chk-1 kinase) [nM]	IC50 (MIA PaCa-2 cells; [3]) [nM]
0.12	137	COc1cc(N2CCCNCC2)ccc1-c1cc(Nc2cnc(C#N)cn2)n[nH]1 [Example 54, 5-[[5-[4-(1,4-diazepan-1-yl)-2-methoxy-phenyl]-1H-pyrazol-3-yl]amino]pyrazine-2-carbonitrile]	30	<3		
227	> 3000	COc1cc(C2CCNCC2)ccc1-c1cc(Nc2cnc(C)cn2)n[nH]1 [Example 55, N-[5-[2-methoxy-4-(4-piperidyl)phenyl]-1H-pyrazol-3-yl]-5-methyl-pyrazin-2-amine]	>3000	1000		
183	> 3000	N#Cc1cnc(Nc2cc(-c3ccc(C4CCNCC4)cc3)[nH]n2)cn1 [Example 56, 5-[[5-[4-(4-piperidyl)phenyl]-1H-pyrazol-3-yl]amino]pyrazine-2-carbonitrile]	>3000	1000		
0.071	337	COc1cc(OC2CCNCC2)ccc1-c1cc(Nc2cnc(C#N)cn2)n[nH]1 [Example 57, 5-[[5-[2-methoxy-4-(4-piperidyloxy)phenyl]-1H-pyrazol-3-yl]amino]pyrazine-2-carbonitrile]	100	3		
0.54	676	COc1cc(C2CCNCC2)c(F)cc1-c1cc(Nc2cnc(C#N)cn2)n[nH]1 [Example 58, 5-[[5-[5-fluoro-2-methoxy-4-(4-piperidyl)phenyl]-1H-pyrazol-3-yl]amino]pyrazine-2-carbonitrile]	300	30		
0.071	263	COc1cc(CNC(C)C)ccc1-c1cc(Nc2cnc(C#N)cn2)n[nH]1 [Example 59, 5-[[5-[4-[(isopropylamino)methyl]-2-methoxy-phenyl]-1H-pyrazol-3-yl]amino]pyrazine-2-carbonitrile]	100	3		
0.1	251	COc1cc(C2CCN(C(C)C)CC2)ccc1-c1cc(Nc2cnc(C#N)cn2)n[nH]1 [Example 61, 5-[[5-[4-(1-isopropyl-4-piperidyl)-2-methoxy-phenyl]-1H-pyrazol-3-yl]amino]pyrazine-2-carbonitrile]	100	2		
0.084	875	COc1cc(C2CCN(CC(N)=O)CC2)ccc1-c1cc(Nc2cnc(C#N)cn2)n[nH]1 [Example 62, 2-[4-[4-[3-[(5-cyanopyrazin-2-yl)amino]-1H-pyrazol-5-yl]-3-methoxy-phenyl]-1-piperidyl]acetamide]	300	10		
0.052	600	COc1cc(CN(C)C2CCOCC2)ccc1-c1cc(Nc2cnc(C#N)cn2)n[nH]1 [Example 63, 5-[[5-[2-methoxy-4-[[methyl(tetra hydropyran-4-yl)amino]methyl]phenyl]-1H-pyrazol-3-yl]amino]pyrazine-2-carbonitrile]	100	<3		

— patent publication US10010547B2 (CASCADIAN THERAPEUTICS, INC., priority 2014, dated 2018)
